Source: patent US20120064135A1, “Benzoyl Peroxide Composition, Methods for Making Same, and Pharmaceutical or Cosmetic Formulations Comprising Same, and Uses Thereof” (Norac Pharma, priority 2010, published 2012)

Columns and labels:
[1] = Stability of tazarotene with BP-CB or BPO in polyacrylic acid gel, stored at 30° C., HPLC peak area; type: physicochemical; conditions: after 834 h at 30° C.; with tazarotene in polyacrylic acid (PAA) gel
Experimental: These stability studies are set up to examine BP-CB/BPO with various APIs in aqueous gel formulations. In one study, tazarotene is used as the API. Tazarotene and BP-CB or BPO are placed into a polyacrylic acid (PAA) gel in vials and stored at 30° C. The vials are analyzed by HPLC and the area from the tazarotene peak is monitored. […] These values are compared on the area from the To results.
(§1) BPO Study—Polyacrylic acid gel is prepared by stirring polyacrylic acid (2.5 g) in deionized water (100 mL) at 50° C. for 2 h. The gel is allowed to cool to ambient temperature. The gel (500 mg) is weighed out into each of the 4-dram vials. Into the same vials is placed hydrous benzoyl peroxide (390 mg, 74.6% by wt) and tazarotene (375 mg). The contents are mixed thoroughly then the vials are stored at 30° C.
as §1, with “BP-CB” for “BPO”, “BP-CB (447” for “hydrous benzoyl peroxide (390”, “65% BPO” for “74.6%”
Analysis—At certain time points, the vials are analyzed by HPLC. […] For To, a vial is removed and analyzed before the samples are heated to 30° C. […]

[2] = Stability of clindamycin hydrochloride mixed with BP-CB or BPO, stored in vials at 30° C., HPLC peak area; type: physicochemical; conditions: after 216 h at 30° C.
Experimental: The stability of the benzoyl peroxide (BP-CB) formulation of the present invention is compared with benzoyl peroxide (BPO) in non-invention drug formulations. In one study, clindamycin hydrochloride is used as the API. Clindamycin hydrochloride and BP-CB or BPO are placed in vials and stored at 30° C. The vials are analyzed by HPLC and the area from the clindamycin hydrochloride peak is monitored. […] These values are in comparison to the area from the T0 results. BPO Study—Into clear one dram vials is placed hydrous benzoyl peroxide (26 mg, 75.0% by wt) and clindamycin hydrochloride (20 mg). The contents are mixed thoroughly. Then the vials are stored at 30° C. BP-CB Study—Into clear one dram vials is placed BP-CB (30 mg, 65% BPO by wt) and clindamycin hydrochloride (20 mg). The contents are mixed thoroughly then the vials are stored at 30° C. Analysis—At certain time points, the vials are analyzed by HPLC. Prior to analysis, a mixture of methanol and acetonitrile (10 mL total, 1:1 by volume) is added to dissolve the contents of the vial. The solution is used for HPLC analysis. For T0, a vial is removed and analyzed before the samples are heated to 30° C. • To prepare 1 L solution, transfer 1000 mL DI water into a suitable reservoir. Add 6.81 g of KH2PO4, and then adjust pH to 3.1 with H3PO4. Mix well. Degas solution thoroughly before use. [table]

[3] = cited from earlier work

| Compound | decrease of HPLC area of the tazarotene peak compared to T0 [1] [%] | decrease of HPLC area of the clindamycin hydrochloride peak in comparison to T0 [2] [%] | pKa [3] |
| --- | --- | --- | --- |
| O=C(OOC(=O)c1ccccc1)c1ccccc1 [BPO, benzoyl peroxide] | 88 | 87.0 | – |
| CC1=C(/C=C/C(C)=C/C=C/C(C)=C/C(=O)O)C(C)(C)CCC1 [tretinoin] | – | – | 3.8 |
